Laboratory results reported in US10435399B2, “HDAC6 inhibitory heterocyclic compound” (TAKEDA PHARMACEUTICAL COMPANY LIMITED, priority 2017, dated 2019).

These molecules were tested against T1, HDAC6 enzyme (Homo sapiens, UniProt Q9UBN7) (assay: HDAC6 enzyme inhibitory activity (HDAC-Glo I/II Assay kit)). Settings: 10 μM; wells without enzyme = 100% inhibition; read-out: HDAC6 inhibitory rate (%) (10 μM).
T1 construct: transducing full length HDAC6 gene into Sf-9 insect cells; GST; purchased SignalChem; host or cells: Sf-9 insect cells
T1 sequence (Q9UBN7 1-1215): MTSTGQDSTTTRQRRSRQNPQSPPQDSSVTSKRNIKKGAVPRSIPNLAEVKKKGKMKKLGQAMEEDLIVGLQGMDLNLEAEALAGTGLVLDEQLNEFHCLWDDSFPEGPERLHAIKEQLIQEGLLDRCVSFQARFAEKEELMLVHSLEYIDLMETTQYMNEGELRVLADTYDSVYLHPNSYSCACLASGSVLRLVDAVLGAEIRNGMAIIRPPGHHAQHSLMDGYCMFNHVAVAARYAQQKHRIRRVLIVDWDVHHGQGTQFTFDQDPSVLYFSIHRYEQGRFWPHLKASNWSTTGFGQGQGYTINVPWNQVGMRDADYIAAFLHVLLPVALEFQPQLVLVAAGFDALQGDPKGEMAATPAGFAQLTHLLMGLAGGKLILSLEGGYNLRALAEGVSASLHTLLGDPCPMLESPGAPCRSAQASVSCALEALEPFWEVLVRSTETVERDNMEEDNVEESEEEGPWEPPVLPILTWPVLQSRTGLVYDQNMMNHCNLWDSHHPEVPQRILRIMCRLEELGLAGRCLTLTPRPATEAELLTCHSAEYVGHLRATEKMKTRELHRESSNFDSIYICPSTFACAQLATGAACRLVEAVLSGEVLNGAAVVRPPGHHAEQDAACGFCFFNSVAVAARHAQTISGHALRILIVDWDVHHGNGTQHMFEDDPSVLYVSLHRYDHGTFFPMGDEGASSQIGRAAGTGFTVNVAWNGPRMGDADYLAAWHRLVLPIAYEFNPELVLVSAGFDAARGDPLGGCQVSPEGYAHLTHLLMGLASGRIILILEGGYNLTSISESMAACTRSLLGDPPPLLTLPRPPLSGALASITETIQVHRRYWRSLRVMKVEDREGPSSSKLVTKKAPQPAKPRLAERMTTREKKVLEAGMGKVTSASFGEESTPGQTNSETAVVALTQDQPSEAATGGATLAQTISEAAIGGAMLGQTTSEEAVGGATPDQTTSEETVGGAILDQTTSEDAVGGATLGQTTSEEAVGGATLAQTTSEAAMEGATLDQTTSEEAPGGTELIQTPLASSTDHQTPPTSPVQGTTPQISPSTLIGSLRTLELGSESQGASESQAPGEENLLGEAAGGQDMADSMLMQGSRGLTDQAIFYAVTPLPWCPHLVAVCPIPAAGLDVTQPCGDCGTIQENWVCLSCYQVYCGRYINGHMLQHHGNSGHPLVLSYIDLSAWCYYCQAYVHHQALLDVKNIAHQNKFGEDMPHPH
Assay type: biochemical
In short: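 Test compound is preincubated 60 min at RT with full-length insect-cell HDAC6 in Tris-HCl pH 7.5 with 135 mM NaCl and 1 mM MgCl2. A 20 min room-temperature HDAC-Glo reaction follows, with luminescent read-out.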

SMILES | inhibition at 10 µM [%]
CC(C)(C#N)C(=O)N[C@@H]1CCCC[C@H]1N1Cc2ccc(-c3nnc(C(F)F)o3)cc2C1=O [Example 82, 2-cyano-N-((1R,2R)-2-(6-(5-(difluoromethyl)-1,3,4-oxadiazol-2-yl)-1-oxo-1,3-dihydro-2H-isoindol-2-yl)cyclohexyl)-2-methylpropanamide] | 100
CC(C)(O)CC(=O)N[C@@H]1CCCC[C@H]1N1Cc2ccc(-c3nnc(C(F)F)o3)cc2C1=O [Example 83, N-((1R,2R)-2-(6-(5-(difluoromethyl)-1,3,4-oxadiazol-2-yl)-1-oxo-1,3-dihydro-2H-isoindol-2-yl)cyclohexyl)-3-hydroxy-3-methylbutanamide] | 102
CC(C)(C(=O)N[C@@H]1CCCC[C@H]1N1Cc2ccc(-c3nnc(C(F)F)o3)cc2C1=O)C(F)(F)F [Example 84, N-((1R,2R)-2-(6-(5-(difluoromethyl)-1,3,4-oxadiazol-2-yl)-1-oxo-1,3-dihydro-2H-isoindol-2-yl)cyclohexyl)-3,3,3-trifluoro-2,2-dimethylpropanamide] | 100
COC(C)(C)C(=O)N[C@@H]1CCCC[C@H]1N1Cc2ccc(-c3nnc(C(F)F)o3)cc2C1=O [Example 85, N-((1R,2R)-2-(6-(5-(difluoromethyl)-1,3,4-oxadiazol-2-yl)-1-oxo-1,3-dihydro-2H-isoindol-2-yl)cyclohexyl)-2-methoxy-2-methylpropanamide] | 101
O=C1c2cc(-c3nnc(C(F)F)o3)ccc2CN1[C@@H]1CCCC[C@H]1NC(=O)C1(c2ccccc2)CC1 [Example 87, N-((1R,2R)-2-(6-(5-(difluoromethyl)-1,3,4-oxadiazol-2-yl)-1-oxo-1,3-dihydro-2H-isoindol-2-yl)cyclohexyl)-1-phenylcyclopropanecarboxamide] | 99
CC(C)(C(=O)N[C@@H]1CCCC[C@H]1N1Cc2ccc(-c3nnc(C(F)F)o3)cc2C1=O)c1ccccc1 [Example 88, N-((1R,2R)-2-(6-(5-(difluoromethyl)-1,3,4-oxadiazol-2-yl)-1-oxo-1,3-dihydro-2H-isoindol-2-yl)cyclohexyl)-2-methyl-2-phenylpropanamide] | 99
O=C1c2cc(-c3nnc(C(F)F)o3)ccc2CN1[C@@H]1CCCC[C@H]1NC(=O)C1(c2ccccc2)CCC1 [Example 89, N-((1R,2R)-2-(6-(5-(difluoromethyl)-1,3,4-oxadiazol-2-yl)-1-oxo-1,3-dihydro-2H-isoindol-2-yl)cyclohexyl)-1-phenylcyclobutanecarboxamide] | 100

Further lines, results first:

inhibition at 10 µM [%] | SMILES
96 | N#CC1(CC(=O)N[C@@H]2CCCC[C@H]2N2Cc3ccc(-c4nnc(C(F)F)o4)cc3C2=O)CC1 [Example 86, 2-(1-cyanocyclopropyl)-N-((1R,2R)-2-(6-(5-(difluoromethyl)-1,3,4-oxadiazol-2-yl)-1-oxo-1,3-dihydro-2H-isoindol-2-yl)cyclohexyl)acetamide]
100 | O=C1c2cc(-c3nnc(C(F)F)o3)ccc2CN1[C@@H]1CCCC[C@H]1NC(=O)C1(c2ccccc2)COC1 [Example 90, N-((1R,2R)-2-(6-(5-(difluoromethyl)-1,3,4-oxadiazol-2-yl)-1-oxo-1,3-dihydro-2H-isoindol-2-yl)cyclohexyl)-3-phenyloxetane-3-carboxamide]
100 | O=C(N[C@@H]1CCCC[C@H]1N1Cc2ccc(-c3nnc(C(F)F)o3)cc2C1=O)C1COC1 [Example 91, N-((1R,2R)-2-(6-(5-(difluoromethyl)-1,3,4-oxadiazol-2-yl)-1-oxo-1,3-dihydro-2H-isoindol-2-yl)cyclohexyl)oxetane-3-carboxamide]
101 | CCC1(C(=O)N[C@@H]2CCCC[C@H]2N2Cc3ccc(-c4nnc(C(F)F)o4)cc3C2=O)COC1 [Example 92, N-((1R,2R)-2-(6-(5-(difluoromethyl)-1,3,4-oxadiazol-2-yl)-1-oxo-1,3-dihydro-2H-isoindol-2-yl)cyclohexyl)-3-ethyloxetane-3-carboxamide]
